One series relates to NCI-H460. Briefly: DTP human tumor cell line one-dose prescreen, NCI-H460. To be noted: Concentration (100 μm), Lung NCI-H460, test/control (T/C). In kind it is cell-based. On the procedure: (§1) The current assay utilizes a 384 well plate format and fluorescent staining technologies resulting in greater screening capacity for testing of synthetic samples. Cell Lines The cell lines of the cancer screening panel are grown in RPMI 1640 medium containing 5% fetal bovine serum and 2 mM L-glutamine. For a typical screening experiment, cells are inoculated into 96 well microtiter plates in 100 μL. After cell inoculation, the microtiter plates are incubated at 37° C., 5% CO2, 95% air and 100% relative humidity for 24 h prior to addition of experimental drugs. The cells are plated a densities of 5000 cells/well (MCF7), 1000 cells/well (NCI-H460), and 7500 cells/well (SF-268) to allow for varying doubling time of the cell lines. Each plate contains all three cell lines, a series of dilutions of standard agents, total kill wells and appropriate controls. Plates are incubated under standard conditions for 24 hours prior to addition of experimental compounds or extracts. Addition of Experimental Agents (Pure Compounds) […] Two standard drugs, meaning that their activities against the cell lines are well documented, are tested against each cell line: NSC 19893 (5-FU) and NSC 123127 (Adriamycin). Endpoint Measurement After compound addition, plates are incubated at standard conditions for ?hours, 10 μl/well Alamar Blue is added and the plates are incubated for an additional 4 hours. Fluorescence is measured using an excitation wavelength of 530 nm and an emission wavelength of 590 nm. Calculation of Percent Test Cell Growth/Control (Untreated) Cell Growth (T/C) Calculation of Percent Test Cell Growth/Control (Untreated) Cell Growth (T/C) Percent growth is calculated on a plate-by-plate basis for test wells relative to control wells. Percent Growth is expressed as the ratio of fluorescence of the test well to the average fluorescence of the control wells ×100.

The next series relates to MCF7. Kind of series: DTP human tumor cell line one-dose prescreen, MCF7. To be noted: Concentration (100 μm), Breast MCF7, test/control (T/C). In kind it is cell-based. On the procedure:
as §1

In another series the test system is SF-268. Kind of series: DTP human tumor cell line one-dose prescreen, SF-268. In kind it is cell-based. To be noted: Concentration (100 μm), CNS SF-268, test/control (T/C). As for the experimental part: as §1
The next series deals with TNF-α. Kind of series: TNF-α production from LPS-stimulated human monocytes (ELISA). To be noted: Monocyte; for inhibition at 1 µM: Conc. 1 μM. In kind it is cell-based.
For a further series, the system named is Male Wistar rats. Kind of series: Rat carrageenan paw edema test. In kind it is in vivo. The conditions noted are these: oral.
The target of another series is T1, COX-2 (Homo sapiens, UniProt P35354).
T1 construct: incubation of human blood with lipopolysaccharide (LPS), which induces COX-2 production in the blood; endogenous in cells; host or cells: fresh human whole blood from male volunteers, LPS-stimulated, aspirin-pretreated
T1 sequence (P35354 18-604): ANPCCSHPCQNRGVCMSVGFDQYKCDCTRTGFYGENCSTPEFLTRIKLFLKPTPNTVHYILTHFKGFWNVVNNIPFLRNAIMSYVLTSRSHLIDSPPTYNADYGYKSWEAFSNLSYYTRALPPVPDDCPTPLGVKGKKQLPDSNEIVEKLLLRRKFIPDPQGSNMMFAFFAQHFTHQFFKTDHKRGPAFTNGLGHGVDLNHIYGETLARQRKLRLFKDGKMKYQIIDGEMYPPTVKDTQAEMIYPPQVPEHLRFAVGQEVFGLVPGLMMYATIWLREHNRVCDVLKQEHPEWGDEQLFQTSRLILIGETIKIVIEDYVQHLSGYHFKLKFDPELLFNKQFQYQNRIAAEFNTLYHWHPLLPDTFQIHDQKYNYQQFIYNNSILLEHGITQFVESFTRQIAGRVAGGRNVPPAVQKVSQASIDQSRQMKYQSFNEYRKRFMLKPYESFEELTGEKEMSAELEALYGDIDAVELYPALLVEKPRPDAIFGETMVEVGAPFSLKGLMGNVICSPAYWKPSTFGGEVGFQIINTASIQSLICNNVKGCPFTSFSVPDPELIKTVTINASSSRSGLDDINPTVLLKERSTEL
Kind of series: Human whole blood assay, COX-2 inhibition (PGE2 after LPS). To be noted: Conc. 0.1 μM, 24 h. In kind it is cell-based. On the procedure:
The COX-2 inhibition activity of the compounds illustrated in the examples was determined by the following method. Human Whole Blood Assay Human whole blood provides a protein and cell rich milieu appropriate for the study of biochemical efficacy of anti-inflammatory compounds such as selective COX-2 inhibitors. […] This is correlating with the observation that COX-2 inhibitors have no effect on prostaglandin E2 (PGE2) production in normal blood. These inhibitors are active only after incubation of human blood with lipopolysaccharide (LPS), which induces COX-2 production in the blood. Method Fresh blood was collected in tubes containing potassium EDTA by vein puncture from male volunteers. The subjects should have no apparent inflammatory conditions and not taken NSAIDs for atleast 7 days prior to blood collection. Blood was treated with aspirin in vitro (10 μg/ml, at time zero) to inactivate COX-1, and then with LPS (10 μg/ml) along with test agents or vehicle. The blood was incubated for 24 h at 37° C., after which the tubes were centrifuged, the plasma was separated and stored at −80° C. (J. Pharmacol. Exp. Ther., 271, 1705, 1994; Proc. Natl. Acad. Sci. USA., 96, 7563, 1999). The plasma was assayed for PGE2 using Cayman ELISA kit as per the procedure outlined by the manufacturer (Cayman Chemicals, Ann Arbor, USA). The plasma was also tested for TNF-α, IL-1β, and IL-6 using appropriate human ELISA kit as per the procedure of manufacturer (Cayman Chemicals, Ann Arbor, USA).

Here are results for three compounds from patent US7317014B2, “Bio-active pyrimidine molecules” (Orchid Research Laboratories, Ltd., priority 2002, dated 2008).

As usually defined, the melting point is the temperature of the solid-liquid transition. As a reminder, the inhibition is the drop in the measured response relative to a control, in per cent. Lower therefore signals a weak effect.

`CS(=O)(=O)c1ccc(-c2nc(C(F)(F)F)nc(Cl)c2-c2ccccc2)cc1` [Example 4, 4-chloro-6-[4-(methylsulfonyl)phenyl]-5-phenyl-2-(trifluoromethyl)pyrimidine] returned a melting point of 156 to 159 °C. Further, the “Percentage Growth Lung NCI-H460” value in the series on NCI-H460 amounted to 0. Also, in the series on MCF7, the “Percentage Growth Breast MCF7” value amounted to 0. Also, the “Percentage Growth CNS SF-268” value in the series on SF-268 turned out to be 3. Further, in the series on TNF-α (Conc. 10 μM), the inhibition at 10 µM worked out at 55.4%.

Regarding `CS(=O)(=O)c1ccc(-c2nc(C(F)(F)F)nc(Cl)c2-c2ccc(F)cc2)cc1` [Example 6, 4-chloro-5-(4-fluorophenyl)-6-[4-(methylsulfonyl)phenyl]-2-(trifluoromethyl)pyrimidine], the melting point was 195 to 197 °C. Further, the “Percentage Growth Lung NCI-H460” value in the series on NCI-H460 was 0. The “Rat Paw Edema model % Inhibition (10 mg/kg body weight)” value in the series on Male Wistar rats turned out to be 64%. Further, the “Percentage Growth Breast MCF7” value with MCF7 worked out at 0. This compound displayed an inhibition at 0.1 µM at COX-2 of 51.9%. For the same compound, the “Percentage Growth CNS SF-268” value with SF-268 is 12. The inhibition at 1 µM with TNF-α was found to be 51.5%.

On to `COc1ccc(-c2c(Cl)nc(Cl)nc2-c2ccccc2)cc1` [Example 11, 2,4-dichloro-5-(4-methoxyphenyl)-6-phenylpyrimidine], for which the melting point lay in the range of 132 to 134 °C. For the same compound, the “Percentage Growth Lung NCI-H460” value in the series on NCI-H460 came to 0. Also, in the series on MCF7, the “Percentage Growth Breast MCF7” value amounted to 5. Further, the “Percentage Growth CNS SF-268” value with SF-268 worked out at 2. Further, the inhibition at 1 µM in the series on TNF-α is 29.2%.
